This note sets out measurements from patent publication US10562850B2, “Human plasma kallikrein inhibitors” (priority 2015, dated 2020).

What is called Ki is the dissociation constant of the complex between target and ligand, obtained from inhibition or displacement.

Each structure is given as a SMILES string. Bounds are passed on as bounds.

Sequence of human plasma kallikrein (P03952 391-638): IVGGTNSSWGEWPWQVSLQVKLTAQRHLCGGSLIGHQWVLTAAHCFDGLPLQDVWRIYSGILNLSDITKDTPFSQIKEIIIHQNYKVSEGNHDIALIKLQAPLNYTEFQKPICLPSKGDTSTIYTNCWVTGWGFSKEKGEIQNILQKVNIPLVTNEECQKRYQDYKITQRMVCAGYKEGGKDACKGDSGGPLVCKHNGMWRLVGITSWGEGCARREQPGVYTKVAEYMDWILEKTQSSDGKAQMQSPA
Sequence of human plasma kallikrein (P03952 20-390 partner): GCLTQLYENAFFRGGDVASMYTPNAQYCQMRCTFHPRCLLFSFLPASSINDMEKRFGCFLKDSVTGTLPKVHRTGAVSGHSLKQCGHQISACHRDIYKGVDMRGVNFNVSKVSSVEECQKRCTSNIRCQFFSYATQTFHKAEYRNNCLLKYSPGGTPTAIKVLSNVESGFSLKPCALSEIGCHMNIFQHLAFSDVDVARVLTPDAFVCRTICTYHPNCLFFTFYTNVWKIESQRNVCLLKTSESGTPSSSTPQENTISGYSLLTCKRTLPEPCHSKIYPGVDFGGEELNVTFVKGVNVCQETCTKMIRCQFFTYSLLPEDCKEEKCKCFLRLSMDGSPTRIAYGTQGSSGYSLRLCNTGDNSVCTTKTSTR

The target of the test is human plasma kallikrein (Homo sapiens (Human), UniProt P03952). The experiment in a line: Plasma Kallikrein Activity Assay (chromogenic substrate S2302). It is filed as biochemical. The conditions noted are these: 2 nM kallikrein, 80 μM S2302, 30° C., pH 7.8; Cheng-Prusoff. The method, then:
Plasma Kallikrein Activity Assay.
The effect of compounds of the invention on human plasma kallikrein activity was determined using the chromogenic substrates (DiaPharma Group, Inc., West Chester, Ohio, USA). In these experiments, 2 nM kallikrein (Enzyme Research Laboratories, South Bend, Ind., USA) was incubated with 80 μM S2302 (H-D-Pro-Phe-Arg-p-nitroaniline) in the absence or presence of increasing concentrations of compounds of the invention in a final volume of 200 μL Tris-HCl buffer (200 mM NaCl; 2.5 mM CaCl2; 50 mM Tris-HCl, pH 7.8).
After incubation at 30° C., the activity of kallikrein was measured as a change in absorbance at OD 405 nm using BioTek PowerWave X340 Microplate Reader (Winooski, Vt., USA). Data were analyzed using SigmaPlot software (Systat Software, Inc., San Jose, Calif., USA) (Four Parameter Logistic Curve). Ki values for the inhibitors were determined using the Cheng-Prusoff equation (Biochem. Pharmacol. 1973, 22, 3099).
Molecule `CC(=O)O[C@@H]1C[C@H](C(=O)Nc2cc(C(N)(CCC3CC3)c3cccc(C#N)c3)ccc2F)N(C(=O)Nc2ccc(Cl)cn2)C1` (stereo partly drawn) [Compound 14g, (3R,5R)-5-(5-((+)-1-amino-1-(3-cyanophenyl)-3-cyclopropylpropyl)-2-fluorophenylcarbamoyl)-1-(5-chloropyridin-2-ylcarbamoyl)pyrrolidin-3-yl acetate] showed a Ki greater than 100 nM.
The result for `N#Cc1cccc(C(N)(CCC2CC2)c2ccc(F)c(NC(=O)[C@H]3C[C@@H](O)CN3C(=O)Nc3ccc(Cl)cn3)c2)c1` (stereo partly drawn) [Compound 14h, (2R,4R)-N2-(5-(1-amino-1-(3-cyanophenyl)-3-cyclopropylpropyl)-2-fluorophenyl)-N1-(5-chloropyridin-2-yl)-4-hydroxypyrrolidine-1,2-dicarboxamide] reads less than 50 nM; that for `CO[C@@H]1C[C@H](C(=O)Nc2cc(C(N)(CCC3CC3)c3cccc(C#N)c3)ccc2F)N(C(=O)Nc2ccc(C#N)cc2)C1` (stereo partly drawn) [Compound 15f, (2R,4R)-N2-(5-((+)-1-amino-1-(3-cyanophenyl)-3-cyclopropylpropyl)-2-fluorophenyl)-N1-(4-cyanophenyl)-4-methoxypyrrolidine-1,2-dicarboxamide], greater than 100 nM; that for `COc1ccc(NC(=O)N2C[C@H](OC)C[C@@H]2C(=O)Nc2cc(C(N)(CCC3CC3)c3cccc(C#N)c3)ccc2F)cc1` (stereo partly drawn) [Compound 16b, (2R,4R)-N2-(5-((+)-1-amino-1-(3-cyanophenyl)-3-cyclopropylpropyl)-2-fluorophenyl)-4-methoxy-N1-(4-methoxyphenyl)pyrrolidine-1,2-dicarboxamide], greater than 100 nM.
The result for `CO[C@@H]1C[C@H](C(=O)Nc2cc(C(N)(CCC3CC3)c3cccc(C#N)c3)ccc2F)N(C(=O)Nc2ccc(Cl)cc2)C1` (stereo partly drawn) [Compound 17b, (2R,4R)-N2-(5-((+)-1-amino-1-(3-cyanophenyl)-3-cyclopropylpropyl)-2-fluorophenyl)-4-methoxy-N1-(4-chlorophenyl)pyrrolidine-1,2-dicarboxamide] reads 50 to 100 nM; that for `CO[C@@H]1C[C@H](C(=O)Nc2cc(C(CCC3CC3)(N[S@+]([O-])C(C)(C)C)c3cccc(C#N)c3)ccc2F)N(C(=O)Nc2ccc(Cl)cn2)C1` (some centres unmarked) [Compound 18a], less than 50 nM.
The result for `CO[C@@H]1C[C@H](C(=O)Nc2cc(C(N)(CCC3CC3)c3cccc(C#N)c3)ccc2F)N(C(=O)Nc2ccc(Cl)cn2)C1` (stereo partly drawn) [Compound 18b, (2R,4R)-N2-(5-((+)-1-amino-1-(3-cyanophenyl)-3-cyclopropylpropyl)-2-fluorophenyl)-N1-(5-chloropyridin-2-yl)-4-methoxypyrrolidine-1,2-dicarboxamide] reads less than 50 nM; that for `N#Cc1cccc(C(N)(CCC2CC2)c2ccc(F)c(NC(=O)[C@H]3C[C@@H](N)CN3C(=O)Nc3ccc(Cl)cc3)c2)c1` (stereo partly drawn) [Compound 19c, (2R,4R)-4-amino-N2-(5-((+)-1-amino-1-(3-cyanophenyl)-3-cyclopropylpropyl)-2-fluorophenyl)-N1-(4-chlorophenyl)pyrrolidine-1,2-dicarboxamide], greater than 100 nM.
On to `N#Cc1cccc(C(N)(CCC2CC2)c2ccc(F)c(NC(=O)[C@H]3CC(=O)CN3C(=O)Nc3ccc(Cl)cc3)c2)c1` (stereo partly drawn) [Compound 20b, (R)-N2-(5-(1-amino-1-(3-cyanophenyl)-3-cyclopropylpropyl)-2-fluorophenyl)-N1-(4-chlorophenyl)-4-oxopyrrolidine-1,2-dicarboxamide], for which the Ki was greater than 100 nM.
`N#Cc1cccc(C(N)(CCC2CC2)c2ccc(F)c(NC(=O)[C@H]3C[C@@H](O)CN3C(=O)Nc3ccccc3)c2)c1` (stereo partly drawn) [Compound 21d, (2R,4R)-N2-(5-((+)-1-amino-1-(3-cyanophenyl)-3-cyclopropylpropyl)-2-fluorophenyl)-4-hydroxy-N1-phenylpyrrolidine-1,2-dicarboxamide] returned a Ki greater than 100 nM.
Next, `Cc1ccc(NC(=O)N2C[C@H](O)C[C@@H]2C(=O)Nc2cc(C(N)(CCC3CC3)c3cccc(C#N)c3)ccc2F)cc1` (stereo partly drawn) [Compound 22b, (2R,4R)-N2-(5-((+)-1-amino-1-(3-cyanophenyl)-3-cyclopropylpropyl)-2-fluorophenyl)-4-hydroxy-N1-p-tolylpyrrolidine-1,2-dicarboxamide]: greater than 100 nM; `N#Cc1cccc(C(N)(CCC2CC2)c2ccc(F)c(NC(=O)[C@H]3C[C@@H](O)CN3C(=O)Nc3ccc(Br)cc3)c2)c1` (stereo partly drawn) [Compound 23b, (2R,4R)-N2-(5-((+)-1-amino-1-(3-cyanophenyl)-3-cyclopropylpropyl)-2-fluorophenyl)-N1-(4-bromophenyl)-4-hydroxypyrrolidine-1,2-dicarboxamide]: 50 to 100 nM.
Next, `N#Cc1cccc(C(N)(CCC2CC2)c2ccc(F)c(NC(=O)[C@H]3C[C@@H](O)CN3C(=O)Nc3ccc(F)cc3)c2)c1` (stereo partly drawn) [Compound 24b, (2R,4R)-N2-(5-((+)-1-amino-1-(3-cyanophenyl)-3-cyclopropylpropyl)-2-fluorophenyl)-N1-(4-fluorophenyl)-4-hydroxypyrrolidine-1,2-dicarboxamide]: greater than 100 nM; `N#Cc1cccc(C(N)(CCC2CC2)c2ccc(F)c(NC(=O)[C@H]3C[C@@H](O)CN3C(=O)Nc3ccc([N+](=O)[O-])cc3)c2)c1` (stereo partly drawn) [Compound 25b, (2R,4R)-N2-(5-((+)-1-amino-1-(3-cyanophenyl)-3-cyclopropylpropyl)-2-fluorophenyl)-4-hydroxy-N1-(4-nitrophenyl)pyrrolidine-1,2-dicarboxamide]: greater than 100 nM.
Next, `N#Cc1cccc(C(N)(CCC2CC2)c2ccc(F)c(NC(=O)[C@H]3C[C@@H](O)CN3C(=O)Nc3cccc4ccccc34)c2)c1` (stereo partly drawn) [Compound 26b, (2R,4R)-N2-(5-((+)-1-amino-1-(3-cyanophenyl)-3-cyclopropylpropyl)-2-fluorophenyl)-4-hydroxy-N1-(naphthalen-1-yl)pyrrolidine-1,2-dicarboxamide]: greater than 100 nM.
In turn, `CC(C)(C)[S@@+]([O-])NC(CCC1CC1)(c1cccc(C#N)c1)c1ccc(F)c(NC(=O)[C@H]2C[C@@H](O)CN2C(=O)Nc2ccc(C(F)(F)F)cc2)c1` (stereo partly drawn) [Compound 27a, (2R,4R)-N2-(5-((+)-1-(3-cyanophenyl)-3-cyclopropyl-1-((R)-1,1-dimethylethylsulfinamido)propyl)-2-fluorophenyl)-4-hydroxy-N1-(4-(trifluoromethyl)phenyl)pyrrolidine-1,2-dicarboxamide] returned a Ki greater than 100 nM.
The result for `N#Cc1cccc(C(N)(CCC2CC2)c2ccc(F)c(NC(=O)[C@H]3C[C@@H](O)CN3C(=O)Nc3ccc(C(F)(F)F)cc3)c2)c1` (stereo partly drawn) [Compound 27b, (2R,4R)-N2-(5-((+)-1-amino-1-(3-cyanophenyl)-3-cyclopropylpropyl)-2-fluorophenyl)-4-hydroxy-N1-(4-(trifluoromethyl)phenyl)pyrrolidine-1,2-dicarboxamide] reads greater than 100 nM; that for `N#Cc1cccc(C(N)(CCC2CC2)c2ccc(F)c(NC(=O)[C@H]3C[C@@H](O)CN3C(=O)Nc3ccc(N)cc3)c2)c1` (stereo partly drawn) [Compound 28b, (2R,4R)-N2-(5-((+)-1-amino-1-(3-cyanophenyl)-3-cyclopropylpropyl)-2-fluorophenyl)-N1-(4-aminophenyl)-4-hydroxypyrrolidine-1,2-dicarboxamide], greater than 100 nM.
Next, `N#Cc1cccc(C(N)(CCC2CC2)c2ccc(F)c(NC(=O)[C@H]3C[C@](O)(c4ccccc4)CN3)c2)c1` (stereo partly drawn) [Compound 29d, (2R,4S)-N-(5-((−)-1-amino-1-(3-cyanophenyl)-3-cyclopropylpropyl)-2-fluorophenyl)-4-hydroxy-4-phenylpyrrolidine-2-carboxamide]: greater than 100 nM.
Next, `N#Cc1cccc(C(N)(CCC2CC2)c2ccc(F)c(NC(=O)[C@H]3C[C@](O)(c4ccccc4)CN3C(=O)Nc3ccc(Cl)cn3)c2)c1` (stereo partly drawn) [Compound 29e, (2R,4S)-N2-(5-((+)-1-amino-1-(3-cyanophenyl)-3-cyclopropylpropyl)-2-fluorophenyl)-N1-(5-chloropyridin-2-yl)-4-hydroxy-4-phenylpyrrolidine-1,2-dicarboxamide]: less than 50 nM; `N#Cc1cccc(C(N)(CCC2CC2)c2ccc(F)c(NC(=O)[C@H]3C[C@](O)(c4ccccc4)CN3C(=O)Nc3ccc(Cl)cc3)c2)c1` (stereo partly drawn) [Compound 30a, (2R,4S)-N2-(5-((+)-1-amino-1-(3-cyanophenyl)-3-cyclopropylpropyl)-2-fluorophenyl)-N1-(4-chlorophenyl)-4-hydroxy-4-phenylpyrrolidine-1,2-dicarboxamide]: less than 50 nM.
In the case of `N#Cc1cccc(C(CCC2CC2)(NC(=O)Nc2ccc(Cl)cc2)c2ccc(F)c(NC(=O)[C@H]3C[C@](O)(c4ccccc4)CN3C(=O)Nc3ccc(Cl)cc3)c2)c1` (stereo partly drawn) [Compound 30b, (2R,4S)-N1-(4-chlorophenyl)-N2-(5-((+)-1-(3-(4-chlorophenyl)ureido)-1-(3-cyanophenyl)-3-cyclopropylpropyl)-2-fluorophenyl)-4-hydroxy-4-phenylpyrrolidine-1,2-dicarboxamide], the inhibition constant Ki lay in the range of 50 to 100 nM.
The result for `NC(CCC1CC1)(c1ccc(F)c(NC(=O)[C@H]2C[C@](O)(c3ccccc3)CN2C(=O)Nc2ccc(Cl)cc2)c1)c1ccccn1` (stereo partly drawn) [Compound 31i, (2R,4S)-N2-(5-((−)-1-amino-3-cyclopropyl-1-(pyridin-2-yl)propyl)-2-fluorophenyl)-N1-(4-chlorophenyl)-4-hydroxy-4-phenylpyrrolidine-1,2-dicarboxamide] reads less than 50 nM.
